The source of these data is patent publication US7569586B2, “Compounds having β2 adrenergic receptor agonist and muscarinic receptor antagonist activity” (Theravance, Inc., priority 2004, dated 2009).

Molecules are shown by their SMILES.

Assay [1] concerns the target T1, human β2 adrenergic receptor (Homo sapiens, UniProt P07550). In words: Whole-cell cAMP Flashplate assay with lung epithelial cell line BEAS-2B endogenously expressing human β2 adrenergic receptor (Assay Test Procedure E). Particulars: BEAS-2B cells. In kind it is cell-based. How it is done:
For the determination of agonist potencies and efficacies (intrinsic activities) in a cell line expressing endogenous levels of the β2 adrenergic receptor, a human lung epithelial cell line (BEAS-2B) was used (ATCC CRL-9609, American Type Culture Collection, Manassas, Va.) (January B, et al., British Journal of Pharmacology, 1998, 123, 4, 701-11). Cells were grown to 75-90% confluency in complete, serum-free medium (LHC-9 MEDIUM containing Epinephrine and Retinoic Acid, cat # 181-500, Biosource International, Camarillo, Calif.). The day before the assay, medium was switched to LHC-8 (no epinephrine or retinoic acid, cat # 141-500, Biosource International, Camarillo, Calif.). cAMP assays were performed in a radioimmunoassay format using the Flashplate Adenylyl Cyclase Activation Assay System with [^125I]-cAMP (NEN SMP004, PerkinElmer Life Sciences Inc., Boston, Mass.), according to the manufacturers instructions. On the day of the assay, cells were rinsed with PBS, lifted by scraping with 5 mM EDTA in PBS, and counted. Cells were pelleted by centrifugation at 1,000 rpm and re-suspended in stimulation buffer pre-warmed to 37° C. at a final concentration of 600,000 cells/mL. Cells were used at a final concentration of 100,000 to 120,000 cells/well in this assay. […] Plates were sealed, incubated over night at 4° C. and counted the next morning in a Topcount scintillation counter (Packard BioScience Co., Meriden, Conn.). The amount of cAMP produced per mL of reaction was calculated based on the counts observed for samples and cAMP standards, as described in the manufacturer's user manual. Data were analyzed by nonlinear regression analysis with the GraphPad Prism Software package (GraphPad Software, Inc., San Diego, Calif.) using the 4-parameter model for sigmoidal dose-response.
if desired, test compound efficacity (% Eff) was calculated from the ratio of the observed Emax (TOP of the fitted curve) and the maximal response obtained for isoproterenol dose response curve and was expressed as % Eff relative to isoproterenol.

Assay [2] deals with T1, human β2 adrenergic receptor. In words: Whole-cell cAMP Flashplate assay in CHO cell lines heterologously expressing human β2 adrenergic receptor (Assay Test Procedure C). In kind it is cell-based. Also on record: expressed in transfected cells; host or cells: CHO-K1 cells. Particulars: CHO-K1 cells. How it is done: cAMP assays were performed in a radioimmunoassay format using the Flashplate Adenylyl Cyclase Activation Assay System with [^125I]-cAMP (NEN SMP004, PerkinElmer Life Sciences Inc., Boston, Mass.), according to the manufacturers instructions. For the determination of P receptor agonist potency (EC50), CHO-K1 cell lines stably expressing cloned human β1, β2 or β3 adrenergic receptors were grown to near confluency in HAM's F-12 media supplemented with 10% FBS and Geneticin (250 μg/mL). Cells were rinsed with PBS and detached in dPBS (Dulbecco's Phosphate Buffered Saline, without CaCl2 and MgCl2) containing 2 mM EDTA or Trypsin-EDTA solution (0.05% trypsin/0.53 mM EDTA). After counting cells in Coulter cell counter, cells were pelleted by centrifugation at 1,000 rpm and re-suspended in stimulation buffer containing IBMX (PerkinElmer Kit) pre-warmed to room temperature to a concentration of 1.6×10^6 to 2.8×10^6 cells/mL. About 60,000 to 80,000 cells per well were used in this assay. Test compounds (10 mM in DMSO) were diluted into PBS containing 0.1% BSA in Beckman Biomek-2000 and tested at 11 different concentrations ranging from 100 μM to 1 pM. Reactions were incubated for 10 min at 37° C. and stopped by adding 100 μL of cold detection buffer containing [^125I]-cAMP (NEN SMP004, PerkinElmer Life Sciences, Boston, Mass.). The amount of cAMP produced (pmol/well) was calculated based on the counts observed for the samples and cAMP standards as described in the manufacturer's user manual. Data were analyzed by nonlinear regression analysis with the GraphPad Prism Software package (GraphPad Software, Inc., San Diego, Calif.) with the sigmoidal equation. The Cheng-Prusoff equation (Cheng Y, and Prusoff W H., Biochemical Pharmacology, 1973, 22, 23, 3099-108) was used to calculate the […].

The target in assay [3] is T2, hM3 muscarinic receptor (Homo sapiens, UniProt P20309).
T2 construct: expressed in transfected cells; host or cells: CHO cells (membranes)
T2 sequence (P20309 whole entry): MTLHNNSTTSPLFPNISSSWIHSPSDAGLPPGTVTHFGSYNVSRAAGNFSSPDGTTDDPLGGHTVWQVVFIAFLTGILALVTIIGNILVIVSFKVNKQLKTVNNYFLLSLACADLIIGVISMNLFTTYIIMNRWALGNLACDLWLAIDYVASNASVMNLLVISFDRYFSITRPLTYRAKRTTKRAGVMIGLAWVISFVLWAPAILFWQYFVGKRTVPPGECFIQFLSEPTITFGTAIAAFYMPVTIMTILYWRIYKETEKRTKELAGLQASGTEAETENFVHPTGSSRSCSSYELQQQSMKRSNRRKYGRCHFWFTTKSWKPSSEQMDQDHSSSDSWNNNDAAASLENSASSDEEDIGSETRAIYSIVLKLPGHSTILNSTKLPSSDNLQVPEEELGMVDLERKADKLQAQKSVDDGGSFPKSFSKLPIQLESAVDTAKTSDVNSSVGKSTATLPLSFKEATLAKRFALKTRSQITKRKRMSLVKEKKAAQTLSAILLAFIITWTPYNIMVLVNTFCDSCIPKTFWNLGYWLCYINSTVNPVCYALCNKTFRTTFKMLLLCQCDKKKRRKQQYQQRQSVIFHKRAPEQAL
In words: Radioligand binding assay for muscarinic receptors (Assay Test Procedure B). Particulars: CHO cell membranes, [3H]-NMS displacement; read-out: Ki value for the M3 muscarinic receptor. How it is done:
CHO cell lines stably expressing cloned human hM1, hM2, hM3 and hM4 muscarinic receptor subtypes, respectively, were grown to near confluency in HAM's F-12 media supplemented with 10% FBS and 250 μg/mL Geneticin. The cells were grown in a 5% CO2, 37° C. incubator and lifted with 2 mM EDTA in dPBS. Cells were collected by 5 minute centrifugation at 650×g, and cell pellets were either stored frozen at −80° C. or membranes were prepared immediately for use. For membrane preparation, cell pellets were resuspended in lysis buffer and homogenized with a Polytron PT-2100 tissue disrupter (Kinematica AG; 20 seconds×2 bursts). Crude membranes were centrifuged at 40,000×g for 15 minutes at 4° C. The membrane pellet was then resuspended with re-suspension buffer and homogenized again with the Polytron tissue disrupter. The protein concentration of the membrane suspension was determined by the method described in Lowry et al., 1951, […], 193, 265. All membranes were stored frozen in aliquots at −80° C. or used immediately. Aliquots of prepared hM5 receptor membranes were purchased directly from Perkin Elmer and stored at −80° C. until use.
Radioligand binding assays for cloned human muscarinic receptors were performed in 96-well microtiter plates in a total assay volume of 100 μL. […] Filter plates were rinsed three times with wash buffer (10 mM HEPES) to remove unbound radioactivity. […] The plates were then counted in a PerkinElmer Topcount liquid scintillation counter (PerkinElmer Inc., Wellesley, Mass.). Binding data were analyzed by nonlinear regression analysis with the GraphPad Prism Software package (GraphPad Software, Inc., San Diego, Calif.) using the one-site competition model. Ki values for test compounds were calculated from observed IC50 values and the KD value of the radioligand using the Cheng-Prusoff equation (Cheng Y; Prusoff W H. (1973) Biochemical Pharmacology, 22(23):3099-108). […]

Assay [4] concerns the target T1, human β2 adrenergic receptor. In words: Radioligand binding assay for human β2 adrenergic receptor (Assay Test Procedure A). Also on record: expressed in transfected cells; host or cells: CHO-K1 cells. Particulars: CHO cell membranes, [3H]-dihydroalprenolol displacement. How it is done:
Chinese hamster ovarian (CHO) cell lines stably expressing cloned human β1, β2 or β3 adrenergic receptors, respectively, were grown to near confluency in Hams F-12 media with 10% FBS in the presence of 500 μg/mL Geneticin. The cell monolayer was lifted with 2 mM EDTA in PBS. Cells were pelleted by centrifugation at 1,000 rpm, and cell pellets were either stored frozen at −80° C. or membranes were prepared immediately for use. For preparation of β1 and β2 receptor expressing membranes, cell pellets were re-suspended in lysis buffer (10 mM HEPES/HCl, 10 mM EDTA, pH 7.4 at 4° C.) and homogenized using a tight-fitting Dounce glass homogenizer (30 strokes) on ice. […] The protein concentration of the membrane suspension was determined by the methods described in Lowry et al., 1951, Journal of Biological Chemistry, 193, 265; and Bradford, Analytical Biochemistry, 1976, 72, 248-54. […]
Binding assays were performed in 96-well microtiter plates in a total assay volume of 100 μL with 10-15 μg of membrane protein containing the human β1, β2 or β3 adrenergic receptors in assay buffer (75 mM Tris/HCl pH 7.4 at 25° C., 12.5 mM MgCl2, 1 mM EDTA, 0.2% BSA). […] Non-specific binding was determined in the presence of 10 μM propranolol. […] Filter plates were washed three times with filtration buffer (75 mM Tris/HCl pH 7.4 at 4° C., 12.5 mM MgCl2, 1 mM EDTA) to remove unbound radioactivity. […]

T1 sequence (P07550 whole entry): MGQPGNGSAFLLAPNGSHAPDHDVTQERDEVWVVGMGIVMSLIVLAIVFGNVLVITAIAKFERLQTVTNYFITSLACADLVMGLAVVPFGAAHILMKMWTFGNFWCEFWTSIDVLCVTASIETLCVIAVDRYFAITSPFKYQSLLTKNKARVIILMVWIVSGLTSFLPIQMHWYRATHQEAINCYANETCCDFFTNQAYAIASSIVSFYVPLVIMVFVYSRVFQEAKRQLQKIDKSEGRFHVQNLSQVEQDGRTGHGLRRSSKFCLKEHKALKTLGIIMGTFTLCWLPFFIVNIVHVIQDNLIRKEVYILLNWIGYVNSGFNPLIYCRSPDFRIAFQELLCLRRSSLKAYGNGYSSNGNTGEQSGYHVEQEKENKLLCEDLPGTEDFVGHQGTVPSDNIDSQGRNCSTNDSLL

Turning to `O=C(Nc1ccccc1-c1cccs1)OC1CCN(CCCCCCCCCNC[C@H](O)c2ccc(O)c3[nH]c(=O)ccc23)CC1` [Example 1, (2-Thien-2-ylphenyl)carbamic Acid 1-{9-[(R)-2-Hydroxy-2-(8-hydroxy-2-oxo-1,2-dihydroquinolin-5-yl)ethylamino]nonyl}piperidin-4-yl Ester], the EC50 in assay [1] was under 20 nM; in assay [2] it was under 10 nM. Further, the Ki in assay [3] and in assay [4] was under 10 nM throughout.
Turning to `O=C(Nc1ccccc1-c1ccsc1)OC1CCN(CCCCCCCCCNC[C@H](O)c2ccc(O)c3[nH]c(=O)ccc23)CC1` [Example 2, (2-Thien-3-ylphenyl)carbamic Acid 1-{9-[(R)-2-Hydroxy-2-(8-hydroxy-2-oxo-1,2-dihydroquinolin-5-yl)ethylamino]nonyl}piperidin-4-yl Ester], the EC50 was under 20 nM in assay [1] and under 10 nM in assay [2]. The Ki in assay [3] and in assay [4] was under 10 nM in each case.
As for `O=C(Nc1c(F)cc(F)cc1-c1cccnc1)OC1CCN(CCCCCCCCCNC[C@H](O)c2ccc(O)c3[nH]c(=O)ccc23)CC1` [Example 3, (2,4-Difluoro-6-pyridin-3-ylphenyl)carbamic Acid 1-{9-[(R)-2-Hydroxy-2-(8-hydroxy-2-oxo-1,2-dihydroquinolin-5-yl)ethylamino]nonyl}piperidin-4-yl Ester], the EC50 in assay [1] is under 20 nM; in assay [2] it was under 10 nM. Further, in assay [3], the Ki was under 150 nM.

What is called EC50 is the concentration needed to bring the measured effect to its halfway point. A lower EC50 goes with higher potency in that assay. Usually Ki stands for the equilibrium dissociation constant of an inhibitor or competing ligand from its target.
